Measurements published in patent US8173689B2 (Novartis AG, priority 2006, dated 2012).
Read-outs that look alike come from different tables or passages of the source.

Columns and labels:
[1] = biological target: T1, kinase domain of PDGFRβ (Homo sapiens, UniProt P09619); experiment: Inhibition of PDGFRb kinase signaling in an in vitro biochemical assay (alphascreen); settings: tested at about 1 μM, read-out: PDGFRβ percent inhibition
T1 construct: The kinase domain of PDGFRβ was assayed in 50 mM Hepes; purchased Invitrogen P3082
T1 sequence (P09619 600-962 limits assumed): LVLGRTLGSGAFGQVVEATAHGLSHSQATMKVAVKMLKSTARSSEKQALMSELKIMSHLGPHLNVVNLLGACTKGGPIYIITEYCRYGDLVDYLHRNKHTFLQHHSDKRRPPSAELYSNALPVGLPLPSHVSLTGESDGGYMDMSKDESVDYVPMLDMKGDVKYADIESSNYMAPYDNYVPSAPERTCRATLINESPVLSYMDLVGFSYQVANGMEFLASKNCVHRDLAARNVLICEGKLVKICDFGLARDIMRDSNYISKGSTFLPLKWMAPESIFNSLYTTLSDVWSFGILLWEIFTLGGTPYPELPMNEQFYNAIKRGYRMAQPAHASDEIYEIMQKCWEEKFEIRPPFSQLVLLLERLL
Protocol: (§1) The IC50 values for the inhibition of RTKs were determined in the alphascreen format measuring the inhibition by compound of phosphate transfer to a substrate by the respective enzyme. Briefly, the respective RTK domain purchased as human recombinant protein (cKIT Upstate #14-559, PDGFRb Invitrogen #P3082) were incubated with serial dilutions of compound in the presence of substrate and ATP concentrations within 3 times the Km of the enzyme.
(§2) Alphascreen PY20 beads were added to the stopped cKIT reactions and PY20 Ab/Protein A Alphascreen beads were added to the PDGFRβ stopped reactions. Both reactions were incubated overnight and read on the Alphascreen reader.

[2] = biological target: T2, cytoplasmic domain of the human CSF-1R (Homo sapiens, UniProt P07333); experiment: In vitro kinase assay for colony stimulating factor-1 receptor (AlphaScreen); format: biochemical; settings: tested at about 1 μM, read-out: CSF-1R percent inhibition
T2 construct: Recombinant protein corresponding to the cytoplasmic domain of the human CSF-1R; purchased Invitrogen Corporation, Carlsbad, Calif; PV3249
T2 sequence (P07333 539-972 limits assumed): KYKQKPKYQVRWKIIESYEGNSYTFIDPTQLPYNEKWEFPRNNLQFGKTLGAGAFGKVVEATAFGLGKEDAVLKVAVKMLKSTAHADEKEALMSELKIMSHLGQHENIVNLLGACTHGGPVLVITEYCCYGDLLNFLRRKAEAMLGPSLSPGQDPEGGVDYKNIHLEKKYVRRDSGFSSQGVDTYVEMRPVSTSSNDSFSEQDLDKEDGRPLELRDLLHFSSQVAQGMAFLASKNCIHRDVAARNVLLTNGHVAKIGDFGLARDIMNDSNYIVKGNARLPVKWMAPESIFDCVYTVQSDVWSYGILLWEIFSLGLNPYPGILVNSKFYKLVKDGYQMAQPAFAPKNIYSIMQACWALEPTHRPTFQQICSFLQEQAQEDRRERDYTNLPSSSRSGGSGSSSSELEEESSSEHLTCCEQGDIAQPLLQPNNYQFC
Protocol: The kinase activity of various protein tyrosine kinases can be measured by providing ATP and a suitable peptide or protein tyrosine-containing substrate, and assaying the transfer of phosphate moiety to the tyrosine residue. Recombinant protein corresponding to the cytoplasmic domain of the human CSF-1R was purchased from Invitrogen Corporation, Carlsbad, Calif. U.S.A. (#PV3249). For each assay, test compounds were serially diluted, starting at 25 μM with 3 fold dilutions, in DMSO in 384 well plates then mixed with an appropriate kinase reaction buffer consisting of 50 mM Hepes, 5 mM MgCl2, 10 mM MnCl2, 0.1% BSA, pH 7.5, 1.0 mM dithiothreitol, 0.01% Tween 80 plus 1 μM ATP. […] Added to the stopped reaction mix was 30 μL of PT66 Alphascreen beads (Perkin Elmer, Boston, Mass., U.S.A.). The reaction was incubated overnight and read on the Envision (Perkin Elmer). Phosphorylated peptide product was measured with the AlphaScreen system (Perkin Elmer) using acceptor beads coated with anti-phosphotyrosine antibody PT66 and donor beads coated with streptavidin that emit a fluorescent signal at the 520-620 nm emission wave length if in close proximity.
CSF-1R kinase was added at final concentration of 4 nM.

[3] = biological target: T3, kinase domain of cKIT (Homo sapiens, UniProt P10721); experiment: Inhibition of cKIT kinase signaling in an in vitro biochemical assay (alphascreen); settings: tested at about 1 μM, read-out: cKit percent inhibition
T3 construct: The kinase domain of cKIT was assayed in 50 mM Hepes; purchased Upstate 14-559
T3 sequence (P10721 589-937 limits assumed): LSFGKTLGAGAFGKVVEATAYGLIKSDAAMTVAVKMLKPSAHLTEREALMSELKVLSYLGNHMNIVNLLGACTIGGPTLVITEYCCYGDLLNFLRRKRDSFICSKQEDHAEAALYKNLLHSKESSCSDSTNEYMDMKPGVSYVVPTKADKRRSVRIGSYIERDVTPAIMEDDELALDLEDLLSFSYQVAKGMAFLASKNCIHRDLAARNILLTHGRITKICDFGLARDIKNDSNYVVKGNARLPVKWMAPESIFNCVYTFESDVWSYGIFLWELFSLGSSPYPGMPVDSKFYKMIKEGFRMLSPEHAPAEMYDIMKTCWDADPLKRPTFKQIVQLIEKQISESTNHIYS
Protocol: as §1, §2

SMILES	inhibition at 1 µM [1] [%]	inhibition at 1 µM [2] [%]	inhibition at 1 µM [3] [%]	inhibition at 1 µM ([1]; compounds of Table 3) [%]	inhibition at 1 µM ([2]; compounds of Table 3) [%]	inhibition at 1 µM ([3]; compounds of Table 3) [%]
CNC(=O)c1cc(Oc2ccc3nc(N[C@@H]4CCC(=O)NC4)sc3c2)ccn1 [Compound 86]				32	63	15
CNC(=O)c1cc(Oc2ccc3nc(N[C@H]4c5ccccc5C[C@H]4O)oc3c2)ccn1 [Compound 49, 4-[2-((1S,2R)-2-Hydroxy-indan-1-ylamino)-benzooxazol-6-yloxy]-pyridine-2-carboxylic acid methylamide]	25	55	63			
CNC(=O)c1cc(Oc2ccc3nc(N(C)Cc4ccccc4)oc3c2)ccn1 [Compound 106, 4-[2-(Benzyl-methyl-amino)-benzooxazol-6-yloxy]-pyridine-2-carboxylic acid methylamide]	0	99	2			
OCc1cc(Oc2ccc3nc(NCC4CCCCC4)oc3c2)ccn1 [Compound 80, {4-[2-(Cyclohexylmethyl-amino)-benzooxazol-6-yloxy]-pyridin-2-yl}-methanol]	0	87	7			
CNC(=O)c1cc(Oc2ccc3nc(NCC(O)COC)sc3c2)ccn1 (stereo not drawn) [Compound 127]				0	95	0
CNC(=O)c1cc(Oc2ccc3nc(NC(=O)c4cccc5c4OCCO5)oc3c2)ccn1 [Compound 110, 4-{2-[(2,3-Dihydro-benzo-[1,4]dioxine-5-carbonyl)-amino]-benzooxazol-6-yloxy}-pyridine-2-carboxylic acid methylamide]	8	85	16			
CNC(=O)c1cc(Oc2ccc3nc(N[C@H](CCO)c4ccccc4)oc3c2)ccn1 [Compound 51, 4-[2-((R)-3-Hydroxy-1-phenyl-propylamino)-benzooxazol-6-yloxy]-pyridine-2-carboxylic acid methylamide]	2	95	40			
O[C@@H]1CCCC[C@H]1Nc1nc2ccc(Oc3ccnc(N4CCCCC4)c3)cc2s1 [Cmpd 174, (1R,2R)-2-(6-(2-(piperidin-1-yl)pyridin-4-yloxy)benzo[d]thiazol-2-ylamino)cyclohexanol]				3	86	18
CNC(=O)c1cc(Oc2ccc3nc(N[C@@H](C(=O)NC)C4CCCCC4)oc3c2)ccn1 [Compound 62, 4-{2-[((R)-Cyclohexyl-methylcarbamoyl-methyl)-amino]-benzooxazol-6-yloxy}-pyridine-2-carboxylic acid methylamide]	5	19	7			
CN1CCN(c2cc(Oc3ccc4nc(N[C@@H]5CCCC[C@H]5O)sc4c3)ccn2)CC1 [Cmpd 176, (1R,2R)-2-(6-(2-(4-methylpiperazin-1-yl)pyridin-4-yloxy)benzo[d]thiazol-2-ylamino)cyclohexanol]				0	63	12
CNC(=O)c1cc(Oc2ccc3nc(NCc4cccnc4)oc3c2)ccn1 [Compound 59, 4-{2-[(Pyridin-3-ylmethyl)-amino]-benzooxazol-6-yloxy}-pyridine-2-carboxylic acid methylamide]	0	97	21			
Cn1cc(-c2cc(Oc3ccc4nc(NCCC5CCOCC5)sc4c3)ccn2)cn1 [Example 361, 6-(2-(1-methyl-1H-pyrazol-4-yl)pyridin-4-yloxy)-N-(2-(tetrahydro-2H-pyran-4-yl)ethyl)benzo[d]thiazol-2-amine]	75	100	100			
CNC(=O)c1cc(Oc2ccc3nc(N[C@H]4CCN(C(C)=O)C4)sc3c2)ccn1 [Example 305, (S)-4-(2-(1-acetylpyrrolidin-3-ylamino)benzo[d]thiazol-6-yloxy)-N-methylpicolinamide]	7	87	15			
O[C@@H]1CCCC[C@H]1Nc1nc2ccc(Oc3ccnc(Cl)c3)cc2s1 [Example 225, (1R,2R)-2-(6-(2-chloropyridin-4-yloxy)benzo[d]thiazol-2-ylamino)cyclohexanol]				0	90	21
CC(=O)N[C@@H]1CCN(c2cc(Oc3ccc4nc(N[C@@H]5CCCC[C@H]5O)sc4c3)ccn2)C1 [Cmpd 177, N-((R)-1-(4-(2-((1R,2R)-2-hydroxycyclohexylamino)benzo[d]thiazol-6-yloxy)pyridin-2-yl)pyrrolidin-3-yl)acetamide]				0	67	15
CNC(=O)c1cc(Oc2ccc3nc(NC4CCN(c5ccccc5)CC4)oc3c2)ccn1 [Compound 107, 4-[2-(1-Phenyl-piperidin-4-ylamino)-benzooxazol-6-yloxy]-pyridine-2-carboxylic acid methylamide]	0	67	8			

Now from value to compound:

inhibition at 1 µM [1] [%]	inhibition at 1 µM [2] [%]	inhibition at 1 µM [3] [%]	inhibition at 1 µM ([1]; compounds of Table 3) [%]	inhibition at 1 µM ([2]; compounds of Table 3) [%]	inhibition at 1 µM ([3]; compounds of Table 3) [%]	SMILES
14	76	0				CNC(=O)c1cc(Oc2ccc3nc(N[C@H]4CCCC[C@H]4NC(=O)c4ccccc4)sc3c2)ccn1 [Example 312, 4-(2-((1S,2R)-2-benzamidocyclohexylamino)benzo[d]thiazol-6-yloxy)-N-methylpicolinamide]
13	74	6				CNC(=O)c1cc(Oc2ccc3nc(N[C@H]4CCCC[C@H]4NC(=O)[C@H]4CCCO4)sc3c2)ccn1 [Example 309, N-methyl-4-(2-((1S,2R)-2-((R)-tetrahydrofuran-2-carboxamido)cyclohexylamino)benzo[d]thiazol-6-yloxy)picolinamide]
88	93	22				CNC(=O)c1cc(Oc2ccc3nc(N[C@H]4CCCC[C@H]4NC(=O)CC(C)C)sc3c2)ccn1 [Example 311, N-methyl-4-(2-((1S,2R)-2-(3-methylbutyanamido)cyclo-hexylamino)benzo[d]thiazol-6-yloxy)picolinamide]
			9	97	1	CNC(=O)c1cc(Oc2ccc3nc(NC4CCCC(NC(C)=O)C4)sc3c2)ccn1 (stereo not drawn) [Example 296, 4-(2-(3-acetamidocyclohexylamino)benzo[d]thiazol-6-yloxy)-N-methylpicolinamide]
			99	100	99	CNC(=O)c1cc(Oc2ccc3nc(NC4CCCCCCC4)sc3c2)ccn1 [Compound 129]
6	90	15				CNC(=O)c1cc(Oc2ccc3nc(NC4CCN(C(C)=O)CC4)sc3c2)ccn1 [Example 307, 4-(2-(1-acetylpiperidin-4-ylamino)benzo[d]thiazol-6-yloxy)-N-methylpicolinamide]
0	47	6				CNC(=O)c1cc(Oc2ccc3nc(N[C@@H]4CCCC[C@H]4NC(=O)C(C)C)sc3c2)ccn1 [Example 327, 4-(2-((1R,2R)-2-isobutyramidocyclohexyl-amino)benzo[d]thiazol-6-yloxy)-N-methylpicolinamide]
0	68	20				CNC(=O)c1cc(Oc2ccc3nc(N[C@@H]4CCCN(C(C)=O)C4)sc3c2)ccn1 [Example 302, (R)-4-(2-(1-acetylpiperidin-3-ylamino)benzo[d]thiazol-6-yloxy)-N-methylpicolinamide]
